Paper PMC7356228, “Alvaxanthone, a Thymidylate Synthase Inhibitor with Nematocidal and Tumoricidal Activities” (Molecules, 2020)
Read-outs that look alike come from different tables or passages of the source.

What was measured:
BJ cells [1] = experiment: Cell adhesion, crystal violet assay; format: cell-based, human; conditions: 48-h treatment
Method: (§1) Cancer metastasis, resulting from an impairment of adhesion between cancer cells and the extracellular matrix may cause cell migration from a primary tumor into distant parts of an organism. The cristal violet assay was used to examine alvaxanthone and rheediaxanthone B ability to influence cellular adhesion.
(§2) Figure 3 Influence of alvaxanthone or rheediaxanthone B on BJ, U-118 MG, and SCC-15 cells adhesion after 48-h treatment. The crystal violet assay was used. Results are medians of triplicate assays of three independent experiments expressed as a % of non-treated controls. The whiskers are lower (25%) and upper (75%) quartile ranges. * p ≤ 0.05, Kruskal–Wallis test (against non-treated control).
(§3) Influence of selected compounds on cells was tested by performing the cytotoxicity (NR and XTT) assays, proliferation assay, cell adhesion assay, cell migration assay, determination of intracellular ATP level, and apoptosis assay as previously reported.

U-118 MG cells [2] = experiment: Cell adhesion, crystal violet assay; format: cell-based, human; conditions: 48-h treatment
Method: as §1, §2, §3

SCC-15 cells [3] = experiment: Cell adhesion, crystal violet assay; format: cell-based, human; conditions: 48-h treatment
Method: as §1, §2, §3

BJ cells [4] = experiment: Intracellular ATP level (CellTiterGlo); format: cell-based, human; conditions: 48-h incubation, fibroblasts
Method: (§4) Figure 4 Changes of caspase-3/7 activities and intracellular ATP level in BJ, U-118 MG, and SCC-15 cells after 48-h incubation with 5–40 µM alvaxanthone or rheediaxanthone B. Median results are presented of three independent experiments, each performed in triplicate. The whiskers are lower (25%) and upper (75%) quartile ranges.
(§5) On the other hand, rheediaxanthone B caused a reduction of ATP level down to around 30% in glioma cells and fibroblasts, and to 20% in squamous carcinoma cells (Figure 4). In general, with increasing Caspase-3/7 activity the ATP level was decreasing, in accord with the results of Reference.
as §3

U-118 MG cells [5] = experiment: Intracellular ATP level (CellTiterGlo); format: cell-based, human; conditions: 48-h incubation, glioma cells
Method: as §4, §5, §3

SCC-15 cells [6] = experiment: Intracellular ATP level (CellTiterGlo); format: cell-based, human; conditions: 48-h incubation, squamous carcinoma cells
Method: as §4, §5, §3

[7] = tested on: U-118 MG human glioblastoma cells; experiment: Cytotoxicity, neutral red uptake (NR) assay; format: cell-based; conditions: neutral red assay, U-118 MG, read-out: IC50
Method: (§6) Biological effect of alvaxanthone and rheediaxanthone B on normal (BJ) and cancer cells (U-118 MG and SCC-15) was estimated using two viability assays, the neutral red uptake (NR) and tetrazolium salts reduction (XTT) assays.
(§7) Human glioblastoma cells U-118 MG (ATCC® HTB-15), human squamous carcinoma cells SCC-15 (ATCC® CRL-1623), and normal human skin fibroblasts (ATCC® CRL-2522) were grown, their morphology checked, and number and viability estimated as earlier presented.
as §3

[8] = tested on: SCC-15 human squamous carcinoma cells; experiment: Cytotoxicity, neutral red uptake (NR) assay; format: cell-based; conditions: Homo sapiens, SCC-15, neutral red assay, read-out: IC50
Method: as §6, §7, §3

C. elegans [9] = experiment: Toxicity to C. elegans (population growth)
Method: C. elegans was maintained as previously described. The effect of the compounds studied on C. elegans population growth was determined as earlier presented.

TsTS = TsTS (Trichinella spiralis, UniProt Q9NDD3); experiment: Inhibition of TS-catalyzed reaction (tritium release from [5-3H]dUMP); format: biochemical, T. spiralis; conditions: for remaining activity at 100 µM: compound 100 µM
Sequence of TsTS (Q9NDD3 entry or part of it): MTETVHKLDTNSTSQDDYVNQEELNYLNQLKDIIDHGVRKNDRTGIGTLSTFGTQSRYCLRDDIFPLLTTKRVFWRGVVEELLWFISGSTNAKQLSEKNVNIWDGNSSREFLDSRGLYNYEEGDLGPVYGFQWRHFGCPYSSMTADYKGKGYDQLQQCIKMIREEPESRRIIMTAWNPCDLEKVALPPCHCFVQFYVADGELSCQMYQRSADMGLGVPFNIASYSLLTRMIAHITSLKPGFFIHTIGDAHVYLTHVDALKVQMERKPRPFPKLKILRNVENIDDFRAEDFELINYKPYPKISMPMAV
From the text: (§8) The recombinant human, rat, mouse, T. spiralis and C. elegans TS proteins were produced, purified and separated into phosphorylated and non-phosphorylated fraction, as previously described. TS activity was monitored, following tritium release from [5-^3H]dUMP, and its inhibition studied as earlier reported.

[10] = tested on: caspases 3/7 in BJ, U-118 MG, and SCC-15 cells; experiment: Apo-ONE Homogenous Caspase-3/7 Assay; format: cell-based, human; conditions: 48 h, 5–40 µM, span over the three cell lines
Method: as §4
The Apo-ONE® Homogenous Caspase-3/7 Assay provides a measurement of the executioner caspases 3/7 activation, characteristic for apoptosis induced via both the intrinsic and extrinsic pathway. It was used to determine apoptosis induction in cells by alvaxanthone and rheediaxanthone B. In each of the three cell lines, compared to the respective non-treated control, treatment with each of the two compounds for 48 h led to a significant activation of the caspases 3/7 (by 2- to 10-fold for alvaxanthone and 8- to 18-fold for rheediaxanthone B), the effect being stronger in cancer than normal cells (Figure 4).
as §3

[11] = tested on: BJ normal human skin fibroblasts; experiment: Cytotoxicity, neutral red uptake (NR) assay; format: cell-based; conditions: Homo sapiens, Skin fibroblast; neutral red assay, BJ; read-out: IC50
Method: as §6, §7, §3

[12] = tested on: BJ, U-118 MG and SCC-15 cells; experiment: NR assay, summary over the three cell lines; format: cell-based, human; conditions: Homo sapiens, 48 h, span over BJ
Method: as §6
Thus, alvaxanthone may be damaging mitochondria and impairing their metabolism exerting one of possible mechanisms active in destroying cancer cells. Changes of cell morphology in dependence on increasing alvaxanthone and rheediaxanthone B concentration were also recorded. While the glioma and squamous carcinoma cells formed clusters, lost their adhesion, shrank, and accumulated less NR dye, normal fibroblasts preserved rather normal shapes but the amount of the neutral red dye and confluence of cells decreased. In addition, a lower number of BJ cells was detected (Figure 1B).
as §3

hTS = biological target: T1, hTS (Homo sapiens, UniProt P04818); experiment: Inhibition of TS-catalyzed reaction (tritium release from [5-3H]dUMP); format: biochemical; conditions: for remaining activity at 10 µM: compound 10 µM; for remaining activity at 100 µM: compound 100 µM, read-out: % Remaining Activity
T1 construct: made in house
T1 sequence (P04818 whole entry): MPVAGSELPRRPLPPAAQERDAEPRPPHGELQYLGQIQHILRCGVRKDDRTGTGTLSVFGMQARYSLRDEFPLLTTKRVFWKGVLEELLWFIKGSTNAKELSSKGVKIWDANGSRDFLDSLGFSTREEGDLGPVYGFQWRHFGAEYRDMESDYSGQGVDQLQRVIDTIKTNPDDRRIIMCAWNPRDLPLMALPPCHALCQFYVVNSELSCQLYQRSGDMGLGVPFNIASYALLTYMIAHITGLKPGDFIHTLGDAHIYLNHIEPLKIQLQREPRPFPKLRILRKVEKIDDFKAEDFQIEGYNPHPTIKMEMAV
From the text: as §8

mTS = biological target: T2, mTS (Mus musculus, UniProt P07607); experiment: as above; format: biochemical; conditions: for remaining activity at 10 µM: compound 10 µM; for remaining activity at 10 µM / remaining activity at 100 µM: 20 µM dUMP, 50 µM meTHF; for remaining activity at 100 µM: compound 100 µM, read-out: % Remaining Activity
T2 construct: made in house
T2 sequence (P07607 whole entry): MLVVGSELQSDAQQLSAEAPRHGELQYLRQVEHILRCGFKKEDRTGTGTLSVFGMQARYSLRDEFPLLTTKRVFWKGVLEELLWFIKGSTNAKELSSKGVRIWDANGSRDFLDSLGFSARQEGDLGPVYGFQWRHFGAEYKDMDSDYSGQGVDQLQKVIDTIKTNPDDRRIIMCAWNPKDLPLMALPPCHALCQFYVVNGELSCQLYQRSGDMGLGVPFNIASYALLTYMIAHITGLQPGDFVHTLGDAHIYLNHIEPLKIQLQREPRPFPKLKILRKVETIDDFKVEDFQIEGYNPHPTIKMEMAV
From the text: as §8

CeTS = biological target: T3, CeTS (Caenorhabditis elegans, UniProt Q9Y052); experiment: as above; format: biochemical, C. elegans; conditions: for remaining activity at 10 µM: compound 10 µM; for remaining activity at 100 µM: compound 100 µM, read-out: % Remaining Activity
T3 sequence (Q9Y052 1-315): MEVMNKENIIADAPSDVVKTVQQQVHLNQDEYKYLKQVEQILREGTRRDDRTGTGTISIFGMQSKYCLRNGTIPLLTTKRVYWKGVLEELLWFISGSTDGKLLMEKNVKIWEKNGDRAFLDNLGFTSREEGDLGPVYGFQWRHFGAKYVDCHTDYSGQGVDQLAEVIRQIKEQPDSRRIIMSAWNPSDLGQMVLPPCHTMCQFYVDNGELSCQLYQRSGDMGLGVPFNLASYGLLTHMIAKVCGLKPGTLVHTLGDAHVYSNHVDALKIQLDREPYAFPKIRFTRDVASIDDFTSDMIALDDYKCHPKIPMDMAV
From the text: as §8

C. elegans [13] = conditions: read-out: LC50 (C. elegans population growth); previously found; cited from earlier work
[14] = 20 µM dUMP and 50 µM meTHF, experiment not repeated, read-out: IC50
[15] = IC50 Assessment, 20 µM dUMP, 50 µM meTHF
[16] = 20 µM dUMP, 50 µM meTHF, read-out: IC50 Assessment

C=CC(C)(C)c1c2c(c3oc4c(O)c(O)ccc4c(=O)c3c1O)C(C)(C)C(C)O2 (stereo not shown) [Rheediaxanthone B (17), Rheediaxanthone B]
concentration at which reduction of adhesion is significant/apparent (BJ cells [1]): 5 µM | concentration at which reduction of adhesion is significant/apparent (U-118 MG cells [2]): 10 µM | concentration at which reduction of adhesion is significant/apparent (SCC-15 cells [3]): 5 µM | ATP level reduced down to (BJ cells [4]): around 30% | ATP level reduced down to (U-118 MG cells [5]): around 30% | ATP level reduced down to (SCC-15 cells [6]): 20% | IC50 [7]: 4.75 µM | IC50 [8]: 9.2 µM | LC50 (C. elegans [9]; Caenorhabditis elegans, read-out: LC50 (reduction of growth of the nematode population)): 16 ± 10.2 µM | IC50 (TsTS; IC50, 20 µM dUMP and 50 µM meTHF, mean ± S.E.M. (N=3) for alvaxanthone, rheediaxanthone B not repeated): 50.8 µM | remaining activity at 10 µM (TsTS; compound 10 µM, 20 µM dUMP, 50 µM meTHF): 68% | remaining activity at 100 µM (TsTS; 20 µM dUMP, 50 µM meTHF): 40% | activation of the caspases 3/7 compared to non-treated control [10]: 8- to 18 fold | IC50 [11]: 5.5 µM | IC50 [12]: < 10 µM | IC50 (hTS; 20 µM dUMP and 50 µM meTHF, mean ± S.E.M. (N=3) for alvaxanthone, rheediaxanthone B not repeated, read-out: IC50): 17.9 µM | remaining activity at 10 µM (hTS; 20 µM dUMP, 50 µM meTHF): 59% | remaining activity at 100 µM (hTS; 20 µM dUMP, 50 µM meTHF): 5% | IC50 (mTS; [14]): 14.3 µM | remaining activity at 10 µM (mTS): 56% | remaining activity at 100 µM (mTS): 2% | IC50 (CeTS; [14]): 11.4 µM | remaining activity at 10 µM (CeTS; 20 µM dUMP, 50 µM meTHF): 59% | remaining activity at 100 µM (CeTS; 20 µM dUMP, 50 µM meTHF): 14%

CC1Oc2c(c3c(c4oc5c(O)c(O)ccc5c(=O)c24)C(C)(C)C(C)O3)C1(C)C (stereo not shown) [Rheediaxanthone C (18), Rheediaxanthone C]
IC50 [7]: 18.3 µM | IC50 [8]: 11 µM | toxicity for the worm (C. elegans [9]; in vivo): does not show toxicity for the worm | IC50 (TsTS; [15]): > 100 µM | remaining activity at 100 µM (TsTS; 20 µM dUMP, 50 µM meTHF): 73% | IC50 [11]: 5.95 µM | IC50 (hTS; [16]): > 100 µM | remaining activity at 100 µM (hTS; 20 µM dUMP, 50 µM meTHF): 57% | remaining activity at 10 µM (mTS): 77% | remaining activity at 100 µM (mTS): 39% | IC50 (CeTS; [16]): > 100 µM | remaining activity at 100 µM (CeTS; 20 µM dUMP, 50 µM meTHF): 71%

COC(=O)Nc1nc2ccc(C(=O)c3ccccc3)cc2[nH]1 [mebendazole]
LC50 (C. elegans [13]): 4 µM

COc1c(O)cc2oc3cc(O)c(CC=C(C)C)c(O)c3c(=O)c2c1CC=C(C)C [α-Mangostin (21), α-Mangostin, reference compound]
IC50 (TsTS; [15]): > 100 µM | remaining activity at 100 µM (TsTS; 20 µM dUMP, 50 µM meTHF): 85% | remaining activity at 10 µM (hTS; 20 µM dUMP, 50 µM meTHF): 89% | remaining activity at 100 µM (hTS; 20 µM dUMP, 50 µM meTHF): 19% | remaining activity at 10 µM (mTS): 75% | remaining activity at 100 µM (mTS): 5% | LC50 (C. elegans [13]): 3.8 µM | remaining activity at 10 µM (CeTS; 20 µM dUMP, 50 µM meTHF): 79% | remaining activity at 100 µM (CeTS; 20 µM dUMP, 50 µM meTHF): 27%
